# Laboratory results as given in US6552216B1, “Molecular model for VLA-4 inhibitors” (Biogen, Inc., priority 1996, dated 2003).
# pIC50: −log10 of the molar value.
# Biological target: VLA-4 (Homo sapiens, UniProt P05556+P13612)
# Test: VLA-4 direct binding assay (DBA)
# Excerpt: (§1) Those skilled in the art routinely perform such assays, and can readily determine the activity of the experimental compound.
# as §1
# Chain of VLA-4 (P13612 34-1032): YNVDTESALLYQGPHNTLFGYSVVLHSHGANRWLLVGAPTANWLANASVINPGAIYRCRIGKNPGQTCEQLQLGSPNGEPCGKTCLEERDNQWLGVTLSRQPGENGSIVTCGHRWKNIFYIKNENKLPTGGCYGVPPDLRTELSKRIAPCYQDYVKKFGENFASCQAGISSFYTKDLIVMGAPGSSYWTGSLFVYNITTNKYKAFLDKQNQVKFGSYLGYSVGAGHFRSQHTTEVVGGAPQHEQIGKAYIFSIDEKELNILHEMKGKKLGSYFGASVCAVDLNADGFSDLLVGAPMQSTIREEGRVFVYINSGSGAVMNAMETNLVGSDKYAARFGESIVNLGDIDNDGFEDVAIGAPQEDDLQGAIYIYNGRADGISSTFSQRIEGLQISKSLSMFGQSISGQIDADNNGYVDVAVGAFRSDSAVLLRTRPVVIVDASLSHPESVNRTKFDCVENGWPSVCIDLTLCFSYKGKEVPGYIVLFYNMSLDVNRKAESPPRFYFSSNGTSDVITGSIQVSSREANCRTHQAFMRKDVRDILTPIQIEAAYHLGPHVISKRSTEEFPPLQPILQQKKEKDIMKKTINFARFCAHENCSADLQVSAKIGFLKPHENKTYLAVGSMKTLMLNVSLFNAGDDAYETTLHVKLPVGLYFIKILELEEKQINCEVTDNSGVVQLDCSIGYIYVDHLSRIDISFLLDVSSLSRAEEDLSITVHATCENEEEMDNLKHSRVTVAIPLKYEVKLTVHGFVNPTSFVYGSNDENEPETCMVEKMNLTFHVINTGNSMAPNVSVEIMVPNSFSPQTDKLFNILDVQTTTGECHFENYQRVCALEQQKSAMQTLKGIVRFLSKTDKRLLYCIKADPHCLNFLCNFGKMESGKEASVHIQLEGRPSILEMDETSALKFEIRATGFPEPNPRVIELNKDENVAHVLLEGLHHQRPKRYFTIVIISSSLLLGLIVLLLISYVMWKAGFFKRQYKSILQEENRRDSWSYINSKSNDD
# Chain of VLA-4 (P05556 21-798): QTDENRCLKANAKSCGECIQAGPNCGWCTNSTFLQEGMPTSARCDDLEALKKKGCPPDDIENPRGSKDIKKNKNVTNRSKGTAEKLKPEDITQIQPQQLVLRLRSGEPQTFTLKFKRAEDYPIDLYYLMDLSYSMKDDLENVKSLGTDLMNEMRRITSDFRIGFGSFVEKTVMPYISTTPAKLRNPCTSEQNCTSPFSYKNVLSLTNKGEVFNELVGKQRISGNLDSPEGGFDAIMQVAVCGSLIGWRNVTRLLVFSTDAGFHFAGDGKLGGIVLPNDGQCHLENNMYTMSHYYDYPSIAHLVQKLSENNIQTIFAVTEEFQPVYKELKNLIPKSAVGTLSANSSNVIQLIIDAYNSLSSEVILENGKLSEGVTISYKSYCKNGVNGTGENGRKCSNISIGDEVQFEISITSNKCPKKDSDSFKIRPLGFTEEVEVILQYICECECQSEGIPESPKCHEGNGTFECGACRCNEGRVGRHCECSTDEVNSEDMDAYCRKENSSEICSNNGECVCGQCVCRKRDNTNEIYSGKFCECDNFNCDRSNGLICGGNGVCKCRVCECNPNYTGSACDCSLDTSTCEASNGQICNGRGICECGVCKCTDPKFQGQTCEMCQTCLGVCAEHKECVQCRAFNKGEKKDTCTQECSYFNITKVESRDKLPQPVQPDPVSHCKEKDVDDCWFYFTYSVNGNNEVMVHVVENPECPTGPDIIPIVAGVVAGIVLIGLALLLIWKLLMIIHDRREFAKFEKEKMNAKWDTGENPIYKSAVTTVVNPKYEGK
structure (smiles),measurement,value
CC(C)C[C@H](NC(=O)Cc1ccccc1)C(=O)N[C@@H](CC(=O)O)C(=O)N[C@H](C(=O)N1CCC[C@H]1C(=O)O)C(C)C [Phenylacetyl-Leu-Asp-Val-Pro],pIC50,5.70
